What is called EC50 is the concentration at which the effect is half-maximal. Low readings indicate higher potency in that assay, high ones lower potency in that assay. For orientation: bioavailability means the share of a dose that reaches the circulation, judged against a reference dose that is usually intravenous.

Like-named read-outs stand apart in the source and are kept apart here.

The results in this text go back to patent US20230257367A1, “NOVEL THYROID HORMONE BETA RECEPTOR AGONIST” (Chengdu Kanghong Pharmaceutical Co., Ltd., priority 2020, published 2023).

One data set addresses T1, TRα (Homo sapiens, UniProt P10827).
T1 construct: host or cells: HEK293T
T1 sequence (P10827 1-410 isoform P10827-2): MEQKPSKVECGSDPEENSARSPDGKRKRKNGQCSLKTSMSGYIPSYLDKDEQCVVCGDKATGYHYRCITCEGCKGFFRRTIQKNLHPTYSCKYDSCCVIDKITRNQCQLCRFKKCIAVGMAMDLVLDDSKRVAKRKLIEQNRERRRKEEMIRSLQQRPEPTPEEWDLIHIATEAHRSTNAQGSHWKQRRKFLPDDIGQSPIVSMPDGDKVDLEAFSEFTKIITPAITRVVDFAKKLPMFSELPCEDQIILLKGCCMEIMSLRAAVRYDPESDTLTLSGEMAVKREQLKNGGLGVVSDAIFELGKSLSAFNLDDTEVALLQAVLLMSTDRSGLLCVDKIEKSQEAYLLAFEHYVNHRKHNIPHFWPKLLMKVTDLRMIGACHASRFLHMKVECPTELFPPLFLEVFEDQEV
T1 sequence (P19793 227-458 partner limits assumed): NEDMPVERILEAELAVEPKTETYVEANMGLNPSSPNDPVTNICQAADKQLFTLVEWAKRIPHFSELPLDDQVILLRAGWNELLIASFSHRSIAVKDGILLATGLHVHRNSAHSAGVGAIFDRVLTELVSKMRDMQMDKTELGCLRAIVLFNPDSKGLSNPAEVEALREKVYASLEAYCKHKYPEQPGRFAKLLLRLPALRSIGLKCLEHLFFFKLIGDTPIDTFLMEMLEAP
Put plainly: In vitro TRα cell transfection experiment (GAL4 luciferase reporter, HEK293T). The data set is classed as cell-based.

Data set [1] can be described thus: PK experiment of cynomolgus monkeys. The data set is classed as in vivo. Particulars: cynomolgus monkey, plasma; for half-life / AUC(0-t) / Cmax: single dose; for half-life: male cynomolgus monkeys, read-out: Half-life period (T1/2) (converted); for AUC(0-t): read-out: Area under the curve AUC(0-t) in the case of administration; for Cmax: read-out: Peak concentration Cmax. An excerpt:
The purpose of this experiment was to evaluate the pharmacokinetic behavior of the compound to be tested after single intravenous and intragastric administration, and to study the bioavailability after intragastric administration, providing animal experimental data for clinical studies.
Preparation of solutions for intravenous injection and intragastric administration: an appropriate amount of compound to be tested was accurately weighed, and mixed with a suitable solvent (5 vol % DMSO+10 vol % polyethylene glycol−15-hydroxystearate+85 vol % normal saline). After vortex, or ultrasound processing, a clear and transparent solution (the solution for intravenous injection administration), or a uniform suspension was obtained. The solution administrated by intravenous injection needed to be filtered through a 0.22 μm filter membrane
Experimental design: before the first dose the cynomolgus monkeys were divided into 2 groups by body weight with 3 male cynomolgus monkeys in each group, where animals in group 1 were given the compound to be tested (1 mg/kg) by single intravenous injection (IV); and animals in the 2rd group were administrated with the compound to be tested (5 mg/kg) by single intragastric administration (PO). The animals were weighed before administration, and dosages were calculated based on the weights of the animals.
Sample collection: a whole blood sample (about 0.2 mL) was collected at a specified time by venipuncture of an upper limb (or other suitable blood collection sites), and the actual blood collection time was recorded in test records. The acceptable error for one acquisition time point within 1 hour after administration is ±1 minute, and the acceptable error for other time points is ±5% of the theoretical time. All blood samples were immediately transferred to a labeled commercial centrifuge tube containing K2-EDTA. After blood sample collection, the blood sample was centrifuged at 4° C. and 3,200 g for 10 minutes, the supernatant plasma was sucked, quickly put in dry ice, and kept in a refrigerator at −70±10° C. for LC-MS/MS analysis. The collection time of both groups was 0.083 hour, 0.25 hour, 0.5 hour, 1 hour, 2 hours, 4 hours, 8 hours and 24 hours after administration.
Data processing: Area under the curve (AUC(0-t) and AUC(0-∞)), elimination half-life (T½), peak concentration (Cmax), time to reach maximum plasma concentration (Tmax), etc., were calculated by the non-compartment analysis module in Phoenix WinNonlin 7.0.

Molecule `CC(C)c1nc(Oc2c(Cl)cc(-n3ncc(=O)[nH]c3=O)cc2Cl)ncc1O` [KH06] had an EC50 at TRα of 0.037 µM. Also, the half-life in data set [1] (IV, 1 mg/kg) was 9 h; in data set [1] (PO, 5 mg/kg), 16.7 h. Besides, in data set [1] (male, PO 5 mg/kg vs IV 1 mg/kg, read-out: Bioavailability (F)), the bioavailability amounted to 73%. Moreover, the AUC(0-t) in data set [1] (male, IV, 1 mg/kg) is 48.8 µg·h/mL; in data set [1] (male, PO, 5 mg/kg), 178 µg·h/mL. The Cmax in data set [1] (male, IV, 1 mg/kg) came to 20700 ng/mL; in data set [1] (male, PO, 5 mg/kg), 18300 ng/mL.
